From patent US9504728B2, “Dosage form” (priority 2011, dated 2016)
Where two headings read alike, the source gives them in different places.

What was measured:
in vivo = conditions: male, mouse, CD1 mice; for bioavailability: p.o. 10 or 5 mg/kg vs i.v. 1 mg/kg, read-out: Oral bioavailability F %
Description: For sanglifehrins, whole blood is analysed. Compounds are formulated in 5% ethanol/5% cremophor EL/90% saline for both p.o. and i.v. administration. Groups of 3 male CD1 mice are dosed with either 1 mg/kg i.v. or 5 or 10 mg/kg p.o. Blood samples (40 μL) are taken via saphenous vein, pre-dose and at 0.25, 0.5, 2, 8, and 24 hours, and diluted with an equal amount of dH20 and put on dry ice immediately. Samples are stored at −70° C. until analysis. The concentration of the sanglifehrin or parent compound in the sample is determined via LCMS as follows: 20 μL of blood:H2O (1:1, v/v)/PK sample is added with 20 μL Internal standard (hydroxyl macrocycle, 6) at 100 ng/mL, 20 μL working solution/MeOH and 150 μL of ACN, vortexed for 1 minute at 1500 rpm, and centrifuged at 12000 rpm for 5 min. The supernatant is then injected into LC-MS/MS. The time-course of blood concentrations is plotted and used to derive area under the whole blood concentration-time curve (AUC—which is directly proportional to the total amount of unchanged drug that reaches the systemic circulation). These values are used to generate PK parameters where possible.
To assess the pharmacokinetics of the compounds in an in vivo setting, compounds were dosed po at 10 or 5 mg/kg and iv at 1 mg/kg to groups of CD1 mice.
Pharmacokinetic analysis was carried out as described in the general methods.

physchem = conditions: for PBS % remaining after 1 hour: phosphate buffered saline pH 7.3, 37° C.; for SGF % remaining after 1 hour: simulated gastric fluid pH 1.2, 37° C.
Description: 1 mM DMSO solutions were made of compounds to be tested and mixed on vibrax to ensure compound was fully dissolved.
PBS Solution: 2 tablets of Phosphate Buffered Saline (Dulbecco A) tablets (Oxoid, BR0014G) were added to 200 mL distilled water and stirred to mix. pH was measured at 7.28.
Simulated Gut Fluid (SGF): 300 uL conc. HCl added to 50 mL distilled water and mixed. pH was measured at 1.21.
Simulated gut fluid+pepsin: 300 uL conc. HCl and 1 g of Pepsin (from Porcine gastric mucosa, Sigma) were added to 50 mL distilled water and mixed by stirring for 1 hr.
SGF+denatured pepsin: 900 uL of Acidic Enzyme Solution taken into a 2 mL eppendorf tube and heated at 99° C. in a water bath for 30 mins.
Acidic Enzyme and Acidic Denatured Enzyme solutions were made fresh each day, whereas PBS and Acid Solutions were stored at 4° C. when not in use.
Eppendorfs containing 900 uL of test solutions were pre-warmed in a 37° C. water bath. At t=0, 100 uL of test compound (1 mM DMSO solution) was added to test solution and mixed. 100 uL was taken immediately and mixed into 900 uL acetonitrile in an amber glass LC vial. 50-100 uL of the sample was analysed by HPLC, integrating the compounds' UV peaks to determine degradation over time. Sanglifehrin A was measured at its λmax of 240 nm; 33, 45 and 24 were measured at their λmax of 276 nm.
Further samples were taken in the same manner for analysis at approximately t=0.33, 0.67, 1.0, 2.67, and 4.67 hr. A final analysis was run at t=>30 to confirm end point of reaction.
Controls of test compound DMSO solutions in 900 uL DMSO were also prepared and treated in the same manner, with samples analysed at t=0, t=8 and t=>30 hr. Half lives were calculated from the data generated.
Stability of compounds was analysed in simulated gastric fluid, pH1.2 (SGF) and phosphate buffered saline, pH7.3 (PBS).

cyclophilin A (CypA) = cyclophilin A (CypA) (Homo sapiens, UniProt P62937); conditions: in words; Sedrani et al., 2003; cited from earlier work
Sequence of cyclophilin A (CypA) (P62937 whole entry): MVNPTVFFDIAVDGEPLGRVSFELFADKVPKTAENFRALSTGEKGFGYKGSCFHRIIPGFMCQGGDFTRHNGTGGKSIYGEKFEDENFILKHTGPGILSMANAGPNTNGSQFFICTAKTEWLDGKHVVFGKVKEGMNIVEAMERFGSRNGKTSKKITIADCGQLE

[1] = iv, whole blood, 1 mg/kg i.v., read-out: AUClast after 1 mg/kg i.v. dose
[2] = po, whole blood, 10 mg/kg p.o., read-out: AUClast after 10 mg/kg p.o. dose
[3] = in vivo, iv, whole blood, 1 mg/kg i.v., read-out: AUClast after 1 mg/kg i.v. dose
[4] = in vivo, po, whole blood, 10 mg/kg p.o., read-out: AUClast after 10 mg/kg p.o. dose

AUC(0-t) (in vivo; [1]) [ng·h/mL]	AUC(0-t) (in vivo; [2]) [ng·h/mL]	bioavailability (in vivo; whole blood, po) [%]	Structure (SMILES)	other results
14300	2200	1.6	CON(C)C(=O)/C=C/C=C(\C)[C@@H]1C/C=C/C=C/[C@H](O)[C@H](C)[C@@H](O)[C@@H](CCC(C)=O)C(=O)N[C@@H](C(C)C)C(=O)N[C@@H](Cc2cccc(O)c2)C(=O)N2CCCC(N2)C(=O)O1 (stereo partly shown) [Compound 33]	half-life at 100 µM (physchem; buffer, pH 7.3): > 1440 min; SGF + Pepsin, % remaining after 1 hour (physchem; pig, simulated gi fluid, 1 h, 100 µM): 25%; half-life at 100 µM (physchem; simulated gi fluid, pH 1.2): 39.6 min
4920	17.8	0.04	CNC(=O)/C=C/C=C(\C)[C@@H]1C/C=C/C=C/[C@H](O)[C@H](C)[C@@H](O)[C@@H](CCC(C)=O)C(=O)N[C@@H](C(C)C)C(=O)N[C@@H](Cc2cccc(O)c2)C(=O)N2CCCC(N2)C(=O)O1 (stereo partly shown) [Compound 36]	–
1660	111	0.9	CCCC(=O)/C=C/C=C(\C)[C@@H]1C/C=C/C=C/[C@H](O)[C@H](C)[C@@H](O)[C@@H](CCC(C)=O)C(=O)N[C@@H](C(C)C)C(=O)N[C@@H](Cc2cccc(O)c2)C(=O)N2CCCC(N2)C(=O)O1 (stereo partly shown) [Compound 39]	–
4910	3880	7.8	CC(=O)CC[C@H]1C(=O)N[C@@H](C(C)C)C(=O)N[C@@H](Cc2cccc(O)c2)C(=O)N2CCCC(N2)C(=O)O[C@H](/C(C)=C/C=C/C(=O)OC(C)(C)C)C/C=C/C=C/[C@H](O)[C@H](C)[C@H]1O (stereo partly shown) [Compound 40]	–
5790	3090	5.5	CCOC(=O)/C=C/C=C(\C)[C@@H]1C/C=C/C=C/[C@H](O)[C@H](C)[C@@H](O)[C@@H](CCC(C)=O)C(=O)N[C@@H](C(C)C)C(=O)N[C@@H](Cc2cccc(O)c2)C(=O)N2CCCC(N2)C(=O)O1 (stereo partly shown) [Compound 38]	–
14000	800	0.1	CCN(CC)C(=O)/C=C/C=C(\C)[C@@H]1C/C=C/C=C/[C@H](O)[C@H](C)[C@@H](O)[C@@H](CCC(C)=O)C(=O)N[C@@H](C(C)C)C(=O)N[C@@H](Cc2cccc(O)c2)C(=O)N2CCCC(N2)C(=O)O1 (stereo partly shown) [Compound 34]	–
22900	–	2.4	CON(C)C(=O)/C=C/C=C(\C)[C@@H]1C/C=C/C=C/[C@H](O)[C@H](C)[C@@H](O)[C@@H](CCC(C)=O)C(=O)N[C@@H](C(C)C)C(=O)N[C@@H](Cc2cc(O)cc(F)c2)C(=O)N2CCCC(N2)C(=O)O1 (stereo partly shown) [Compound 23]	–

The next lines start with the molecule.

Structure (SMILES)	AUC(0-t) (in vivo; [1]) [ng·h/mL]	AUC(0-t) (in vivo; [2]) [ng·h/mL]	bioavailability (in vivo; whole blood, po) [%]	other results
CC(=O)CC[C@H]1C(=O)N[C@@H](C(C)C)C(=O)N[C@@H](Cc2cccc(O)c2)C(=O)N2CCCC(N2)C(=O)O[C@H](/C(C)=C/C=C/C(=O)N2CCOCC2)C/C=C/C=C/[C@H](O)[C@H](C)[C@H]1O (stereo partly shown) [Compound 43]	9800	8980	9.2	–
CNC(=O)/C=C/C=C(\C)[C@@H]1C/C=C/C=C/[C@H](O)[C@H](C)[C@@H](O)[C@@H](CCC(C)=O)C(=O)N[C@@H](C(C)C)C(=O)N[C@@H](Cc2cccc(OC)c2)C(=O)N2CCCC(N2)C(=O)O1 (stereo partly shown) [Compound 37]	1220	4.76	0.04	–
CC(=O)CC[C@H]1C(=O)N[C@@H](C(C)C)C(=O)N[C@@H](Cc2cccc(O)c2)C(=O)N2CCCC(N2)C(=O)O[C@H](/C(C)=C/C=C/C(=O)N2CCCCO2)C/C=C/C=C/[C@H](O)[C@H](C)[C@H]1O (stereo partly shown) [Compound 45]	–	–	–	AUC(0-t) (in vivo; [3]): 15100 ng·h/mL; bioavailability (in vivo; in vivo, po): 3.2%; AUC(0-t) (in vivo; [4]): 4840 ng·h/mL; SGF + denatured pepsin, % remaining after 1 hour (physchem; 37° C., 1 hour): 15%; SGF + Pepsin, % remaining after 1 hour (physchem; SGF + pepsin, 37° C., 1 hour): 17%; half-life at 100 µM (physchem; buffer, pH 7.3): > 1440 min; PBS % remaining after 1 hour (physchem; 1 hour): 100%; SGF % remaining after 1 hour (physchem; 1 hour): 13%; half-life at 100 µM (physchem; simulated gi fluid, pH 1.2): < 19.8 min
CC(=O)CC[C@H]1C(=O)N[C@@H](C(C)C)C(=O)N[C@@H](Cc2cccc(O)c2)C(=O)N2CCCC(N2)C(=O)O[C@H](/C(C)=C/C=C/C(=O)Nc2ccccn2)C/C=C/C=C/[C@H](O)[C@H](C)[C@H]1O (stereo partly shown) [Compound 42]	–	–	–	AUC(0-t) (in vivo; [3]): 11700 ng·h/mL; bioavailability (in vivo; in vivo, po): 0.7%; AUC(0-t) (in vivo; [4]): 919 ng·h/mL
CC(=O)CC[C@H]1C(=O)N[C@@H](C(C)C)C(=O)N[C@@H](Cc2cc(O)cc(F)c2)C(=O)N2CCCC(N2)C(=O)O[C@H](/C(C)=C/C=C/C(=O)N2CCCCO2)C/C=C/C=C/[C@H](O)[C@H](C)[C@H]1O (stereo partly shown) [Compound 24]	45500	–	3.6	SGF + denatured pepsin, % remaining after 1 hour (physchem; 37° C., 1 hour): 30%; SGF + Pepsin, % remaining after 1 hour (physchem; SGF + pepsin, 37° C., 1 hour): 23%; half-life at 100 µM (physchem; phosphate buffered saline (PBS), pH 7.3): > 1440 min; PBS % remaining after 1 hour (physchem; 1 hour): 100%; half-life at 100 µM (physchem; simulated gastric fluid (SGF), pH 1.2): < 19.8 min; SGF % remaining after 1 hour (physchem; 1 hour): 18%
CON(C)C(=O)/C=C/C=C(\C)[C@@H]1C/C=C/C=C/C=C(\C)[C@@H](O)[C@@H](CCC(C)=O)C(=O)N[C@@H](C(C)C)C(=O)N[C@@H](Cc2cc(O)cc(F)c2)C(=O)N2CCCC(N2)C(=O)O1 (stereo partly shown) [Compound 26]	5500	–	1.5	AUC(0-t) (in vivo; po, whole blood, 5 mg/kg p.o., read-out: AUClast after 5 mg/kg p.o. dose): 421 ng·h/mL
C/C(=C\CO)[C@@H]1C/C=C/C=C/[C@@H]2OC3(C)CC[C@@H](C(=O)N[C@@H](C(C)C)C(=O)N[C@@H](Cc4cccc(O)c4)C(=O)N4CCCC(N4)C(=O)O1)[C@H](O3)[C@H]2C [Compound 35]	813	11.3	0.1	–
CC(=O)CC[C@H]1C(=O)N[C@@H](C(C)C)C(=O)N[C@@H](Cc2cccc(O)c2)C(=O)N2CCCC(N2)C(=O)O[C@H](/C(C)=C/C=C/C(=O)Nc2ccc(-c3ccccc3)cc2)C/C=C/C=C/[C@H](O)[C@H](C)[C@H]1O (stereo partly shown) [Compound 44]	2500	–	0	–
CC(=O)CC[C@H]1C(=O)N[C@@H](C(C)C)C(=O)N[C@@H](Cc2cccc(O)c2)C(=O)N2CCC[C@H](N2)C(=O)O[C@H](/C(C)=C/CO)C/C=C/C=C/[C@H](O)[C@H](C)[C@H]1O [hydroxymacrocycle, 6, hydroxymacrocycle]	–	–	–	affinity for CyPA (cyclophilin A (CypA)): strong affinity
CC(=O)CC[C@H]1C(=O)N[C@@H](C(C)C)C(=O)N[C@@H](Cc2cccc(O)c2)C(=O)N2CCCC(N2)C(=O)O[C@H](/C(C)=C/C=C/C(=O)N(CC(C)C)CC(C)C)C/C=C/C=C/[C@H](O)[C@H](C)[C@H]1O (stereo partly shown) [Compound 41]	1940	453	2.4	–
